The text below walks through data of PMC7774954, “Interactomic affinity profiling by holdup assay: Acetylation and distal residues impact the PDZome-binding specificity of PTEN phosphatase” (PLoS ONE, 2020).

The subject of this test is AHNAK1-1. Description: Holdup assay, AHNAK1-1. The class given is binding, human.

*1 amine or outer side, *2 acyl side, *3 side chain or, on linkers, in order; H or OH if unused. Where a SMILES comes first, the peptide text is derived from it. The star is where a group is joined. X1 = O=C(CCCC[C@@H]1SC[C@@H]2NC(=O)N[C@@H]21)NCCCOCCOCCOCCCN*; Suc = O=C(CCC(=O)[*:2])[*:1]

`CC[C@H](C)[C@H](NC(=O)[C@H](CCC(N)=O)NC(=O)[C@@H](NC(=O)[C@H](Cc1c[nH]cn1)NC(=O)[C@H](CCC(N)=O)NC(=O)[C@H](CC(=O)O)NC(=O)[C@H](CCC(=O)O)NC(=O)[C@H](CC(=O)O)NC(=O)[C@H](Cc1ccccc1)NC(=O)[C@@H]1CCCN1C(=O)CCC(=O)NCCCOCCOCCOCCCNC(=O)CCCC[C@@H]1SC[C@@H]2NC(=O)N[C@@H]21)[C@@H](C)O)C(=O)N[C@H](C(=O)N[C@@H](CCCCN)C(=O)N[C@H](C(=O)O)C(C)C)[C@@H](C)O` [PTEN_13] ({X1-Suc}-PFDEDQHTQITKV-OH) displayed a BI of -0.053.
